# Values quoted from earlier work, collected in patent US11529374B2, “Extract and formulation including extract” (NIPPON ZOKI PHARMACEUTICAL CO., LTD., priority 2012, dated 2022).
# Settings: particularly an effect for non-inflammatory pain diseases such as neuropathic pain disease; Japanese Patent No. 4005115, CN 101600438B
structure (smiles),measurement,value
CC(=O)N[C@H]1[C@H]([C@H](O)[C@H](O)CO)OC(O)(C(=O)O)C[C@@H]1O (stereo partly shown) [N-acetylneuraminic acid],Analgesic action,has an analgesic action
